Results taken from patent US20260184693A1, “INHIBITORS OF SOLUTE CARRIER FAMILY 6A MEMBER 19 (SLC6A19) AND METHODS OF USE THEREOF” (Maze Therapeutics, Inc., priority 2022, published 2026).

biological target: T1, human SLC6A19 (Homo sapiens, UniProt Q695T7); assay: Example B2: 13C6,15N-isoleucine uptake, RapidFire mass spectrometry, in CHO cells with doxycycline-inducible expression of human SLC6A19 and TMEM27; format: cell-based; conditions: read-out: SLC6A19_RapidFire Uptake Assay IC50
T1 construct: expressed in transfected cells
T1 sequence (Q695T7 1-634): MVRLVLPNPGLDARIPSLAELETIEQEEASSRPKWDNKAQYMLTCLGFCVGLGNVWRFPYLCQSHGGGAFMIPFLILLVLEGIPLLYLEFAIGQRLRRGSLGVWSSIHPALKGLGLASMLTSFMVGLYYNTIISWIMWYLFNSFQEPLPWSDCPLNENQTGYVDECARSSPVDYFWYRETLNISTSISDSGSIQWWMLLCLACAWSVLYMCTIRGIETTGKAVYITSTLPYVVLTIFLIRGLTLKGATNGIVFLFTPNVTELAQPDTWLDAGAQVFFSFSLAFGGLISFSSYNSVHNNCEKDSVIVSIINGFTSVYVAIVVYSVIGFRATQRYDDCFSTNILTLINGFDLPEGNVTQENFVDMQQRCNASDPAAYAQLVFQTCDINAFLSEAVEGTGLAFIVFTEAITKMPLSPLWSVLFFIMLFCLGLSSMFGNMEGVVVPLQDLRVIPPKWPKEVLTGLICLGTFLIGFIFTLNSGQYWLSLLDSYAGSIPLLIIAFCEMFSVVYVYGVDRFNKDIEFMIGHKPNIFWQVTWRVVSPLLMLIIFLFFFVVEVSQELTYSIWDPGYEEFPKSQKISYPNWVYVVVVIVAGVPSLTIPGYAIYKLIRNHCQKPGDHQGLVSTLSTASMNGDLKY
T1 sequence (Q9HBJ8 15-222 partner): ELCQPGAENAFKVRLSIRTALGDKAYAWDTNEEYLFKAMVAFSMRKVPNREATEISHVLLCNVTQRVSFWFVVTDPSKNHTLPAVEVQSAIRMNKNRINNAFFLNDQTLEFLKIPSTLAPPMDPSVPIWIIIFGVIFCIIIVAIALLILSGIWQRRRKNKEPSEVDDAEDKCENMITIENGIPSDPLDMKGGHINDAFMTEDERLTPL
Procedure: Assay ready vials of CHO cells with doxycycline inducible expression of human SLC6A19 and TMEM27 were thawed, plated in T175 flasks containing DMEM/F12 media, 10% FBS, 100 Penicillin-Streptomycin, 1× UltraGlutamate, 1 mM Sodium Pyruvate, Sodium Bicarbonate (7.5 mL of 7.5% solution in 500 mL media final), […] Blasticidin, 150 µg/mL Hygromycin B Gold, and 500 µg/mL G418, and incubated (humidified, 37° C. with […]) for 48 hours. Media was then removed, flasks were washed with 20 mL of DPBS, and 5 mL of TryμLE™ Express was added to each flask to initiate cell dissociation. After 5 minutes, 10 mL of cell culture media was added to each flask and mixed. The cell suspension was collected and centrifuged for 5 minutes at 200×g. The supernatant was removed, and the pellet was resuspended in 10 mL of cell culture media. Resuspended cells were counted using a Vi-Cell. 30 μL/well (20,000 cells/well) of cell suspension was added to Poly-D-Lysine 384-well black/clear plates. Plates were incubated (humidified, 37° C. with 5% CO2) for 24 hours. To induce expression of human SLC6A19 and TMEM27, 10 μL of assay culture media containing 4 μg/mL doxycycline was added to each well. Assay plates were then incubated (humidified, 37° C. with 5% CO2) overnight. After incubation, the media was removed, and wells were washed 3 times with 40 μL of warmed DPBS. […] All compounds were plated in a duplicate 10-point dilution series that consisted of 2-fold dilutions. The plates were incubated (humidified, 37° C. with 5% CO2) with compound for 20 minutes. Afterwards, 20 μL/well of 2 mM 13C6,15N-1-isoleucine was added to each well and plates were incubated again (humidified, 37° C. with 5% CO2) for another 20 minutes. Assay buffer was then removed, and plates were washed. 70 μL/well of stop solution (75% acetonitrile, 25% HPLC grade water, 250 nM 1-leucine-1-13 C (RapidFire standard)) was added to each well. The plates were sealed and then placed in a −20° C. freezer for 20 minutes. The plates were thawed at room temperature for 20 minutes and then centrifuge for 20 minutes at 3000 rpm. Using an ABSciex API4000 mass spectrometer, processed samples were loaded onto the graphitic carbon SPE-column. The time for aspiration, load/wash, elution and re-equilibration time was 600, 1500, 3000 and 500 milliseconds, respectively. Peak areas were calculated using RapidFire Integrator software.

Structure (SMILES) | IC50
CC(=O)N1CCC[C@@H](N(C)C(=O)NCc2cc3[nH]ccc3cc2Cl)C1 [Compound 165, (R)-1-(1-acetylpiperidin-3-yl)-3-((5-chloro-1H-indol-6-yl)methyl)-1-methylurea] | 8030 nM
CN(C(=O)NCc1cc2cc(Cl)ccc2[nH]1)[C@@H]1CCCN(C(=O)c2ncccn2)C1 [Compound 22, (R)-3-((5-chloro-1H-indol-2-yl)methyl)-1-methyl-1-(1-(pyrimidine-2-carbonyl)piperidin-3-yl)urea] | 4370 nM
CC(=O)N1CCC[C@@H](N(C)C(=O)NCc2ccc3c(C)c(C)[nH]c3c2)C1 [Compound 225, (R)-1-(1-acetylpiperidin-3-yl)-3-((2,3-dimethyl-1H-indol-6-yl)methyl)-1-methylurea] | 2960 nM
CC(=O)N1CCC[C@@H](N(C)C(=O)NCc2cc3cc(Cl)c(OCc4ccon4)cc3[nH]2)C1 [Compound 138, (R)-1-(1-acetylpiperidin-3-yl)-3-((5-chloro-6-(isoxazol-3-ylmethoxy)-1H-indol-2-yl)methyl)-1-methylurea] | 643 nM
CN(C(=O)NCc1cc2cc(Cl)ccc2[nH]1)[C@@H]1CCCN(C(=O)COc2ccc(=O)[nH]n2)C1 [Compound 83, (R)-3-((5-chloro-1H-indol-2-yl)methyl)-1-methyl-1-(1-(2-((6-oxo-1,6-dihydropyridazin-3-yl)oxy)acetyl)piperidin-3-yl)urea] | 4790 nM
CC(=O)N1CCC[C@@H](N(C)C(=O)NCc2cc3cc(Cl)c(OCc4cncs4)cc3[nH]2)C1 [Compound 140, (R)-1-(1-acetylpiperidin-3-yl)-3-((5-chloro-6-(thiazol-5-ylmethoxy)-1H-indol-2-yl)methyl)-1-methylurea] | 1240 nM

The next lines start with the values.

IC50 | Structure (SMILES)
3520 nM | CN(C(=O)NCc1cc2cc(Cl)ccc2[nH]1)[C@@H]1CCCN(C(=O)CN2CCOC2=O)C1 [Compound 2, (R)-3-((5-chloro-1H-indol-2-yl)methyl)-1-methyl-1-(1-(2-(2-oxooxazolidin-3-yl)acetyl)piperidin-3-yl)urea]
651 nM | CN(C(=O)NCc1cc2cc(Cl)ccc2[nH]1)[C@@H]1CCCN(C(=O)[C@H]2C[C@H](O)C2)C1 [Compound 64, trans-(R)-3-((5-chloro-1H-indol-2-yl)methyl)-1-(1-(3-hydroxycyclobutane-1-carbonyl)piperidin-3-yl)-1-methylurea]
256 nM | CN(C(=O)NCc1cc2cc(Cl)ccc2[nH]1)[C@@H]1CCCN(C(=O)C2CC(F)C2)C1 (stereo partly drawn) [Compound 124, (R)-3-((5-chloro-1H-indol-2-yl)methyl)-1-(1-(3-fluorocyclobutane-1-carbonyl)piperidin-3-yl)-1-methylurea]
467 nM | CN(C(=O)NCc1cc2cc(Cl)ccc2[nH]1)[C@@H]1CCCN(C(=O)[C@H]2C[C@@H]2F)C1 [Compound 14, 3-((5-chloro-1H-indol-2-yl)methyl)-1-((R)-1-((1R,2S)-2-fluorocyclopropane-1-carbonyl)piperidin-3-yl)-1-methylurea]
259 nM | CN(C(=O)NCc1cc2cc(Cl)ccc2[nH]1)[C@@H]1CCCN(C(=O)C2CCC2F)C1 (stereo partly drawn) [Compound 125, 3-((5-chloro-1H-indol-2-yl)methyl)-1-((3R)-1-(2-fluorocyclobutane-1-carbonyl)piperidin-3-yl)-1-methylurea]
5260 nM | CN(C(=O)NCc1cc2cc(Cl)ccc2[nH]1)[C@@H]1CCCN(C(=O)c2cnnn2C)C1 [Compound 26, (R)-3-((5-chloro-1H-indol-2-yl)methyl)-1-methyl-1-(1-(1-methyl-1H-1,2,3-triazole-5-carbonyl)piperidin-3-yl)urea]
685 nM | CN(C(=O)NCc1cc2cc(Cl)ccc2[nH]1)[C@@H]1CCCN(C(=O)c2cocn2)C1 [Compound 7, (R)-3-((5-chloro-1H-indol-2-yl)methyl)-1-methyl-1-(1-(oxazole-4-carbonyl)piperidin-3-yl)urea]
1750 nM | CN(C(=O)NCc1cc2cc(Cl)ccc2[nH]1)[C@@H]1CCCN(C(=O)C2CCC(=O)C2)C1 (stereo partly drawn) [Compound 75, 3-((5-chloro-1H-indol-2-yl)methyl)-1-methyl-1-((3R)-1-(3-oxocyclopentane-1-carbonyl)piperidin-3-yl)urea]
